From patent US8741807B2 (priority 2011, dated 2014)
Read-outs that look alike come from different tables or passages of the source.

Test system: rice blast fungus (Kyu89-246, MAFF101506, race 003.0)
Assay type: in vivo
Conditions: inoculated next day, 6 days after inoculation, five-leaf stage

| SMILES | resistance to rice blast (number of lesions) (sprayed at 1 mM) | resistance to rice blast (number of lesions) (sprayed at 5 mM) |
| --- | --- | --- |
| NCCCCNCCCNC(=O)CCCCCCCCCCCO [YIS12OH1N, 1-N-(12-hydroroxylauroyl)-spermidine] | provided the resistance | showed resistance to rice blast |
| NCCCCN(CCCN)C(=O)CCCCCCCCCCCO [YIS12OH4N, ^4N-(12-hydroroxylauroyl)-spermidine] |  | showed resistance to rice blast |
